pEC50, pIC50: −log10 of the molar value. Where “and” joins values, the source holds several entries; their conditions need not be identical. Equal entries are not always repeated. Calls of active or inactive are those of the source.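 Rule for the calls: active = compounds giving half or more protection of infected cells from virus-caused growth loss, again on retest; inactive = the rest.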
System: CEM cells HIV-1 protection, formazan growth assay
Assay: NCI AIDS Antiviral Assay
Details: for pIC50: measured here: growth of uninfected CEM cells
Outline: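 Category rules: moderately active means at least 50% protection on retest, and confirmed active means 100% protection reproducibly. The underlying data came from a formazan growth assay in HIV-1-infected CEM cells.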

Row | SMILES | pEC50 | pIC50 | outcome
1 | Cn1cc(NC(=O)Nc2cc(C(=O)Nc3ccc4cc(S(=O)(=O)O)cc(S(=O)(=O)O)c4c3)n(C)c2)cc1C(=O)Nc1ccc2cc(S(=O)(=O)O)cc(S(=O)(=O)O)c2c1 | 4.10 | < 3.70 | 
2 | C=C1CN(S(=O)(=O)c2ccc(C)cc2)CCCN(CC2CC=CCC2)CCCN(S(=O)(=O)c2ccc(C)cc2)C1 (stereo unspecified) | < 3.70 | 5.89 | 
3 | CC1CC/C(=C\c2ccc(Cl)cc2)c2nc(N)c(C#N)c(-c3ccc(Cl)cc3)c21 (stereo unspecified) | < 3.70 | 3.81 | 
4 | COc1cc(NCCN(CC(C)C)C(C)C(C)C)c2ncccc2c1 (stereo unspecified) | < 3.70 | 4.43 | 
5 | Cc1cc(C)n2c(=O)[nH]nc2c1 | < 3.70 | 3.75 | 
6 | CC1=CCC2(C#N)CCC1C2=O (stereo unspecified) | < 3.60 | < 3.60 | 
7 | CC1CCC(=O)C(C(O)CC2CC(=O)N(c3ccccc3)C(=O)C2)C1 (stereo unspecified) | < 3.70 | < 3.70 | 
8 | CC(=O)Oc1cc(Cl)c(C)c2c1[C@H]1CC[C@]3(C)[C@@H](OC(C)=O)CC[C@H]3[C@@H]1CC2 | < 3.90 | < 3.90 | 
9 | S=C(SSSSC(=S)N(C1CCCCC1)C1CCCCC1)N(C1CCCCC1)C1CCCCC1 | < 3.70 | 3.90 | 
10 | CC(C)(C)N1COCO[C@H]2CCC[C@@H]21 | < 3.28 | 3.73 | 
11 | CC(=O)NNC(=S)/N=C\C(C(=O)c1ccccc1)=C(/O)c1ccccc1 | < 3.70 | < 3.70 | 
12 | Cc1c(COC(=O)NC(C)C)c(COC(=O)NC(C)C)c2n1CS(=O)(=O)C2 | < 3.70 | < 3.70 | 
13 | Nc1nc(Cl)c(N)c(NCC2(CO)CC2)n1 | < 3.70 | < 3.70 | 
14 | CC1(C)OP(=O)(O)C=C1Sc1ccc([N+](=O)[O-])cc1[N+](=O)[O-] | < 3.70 | < 3.70 | 
15 | COc1ccc2c(c1)[nH]c(=O)c1c3ccccc3[nH]c21 | < 3.70 | 3.84 | 
16 | O=C1c2cccc3cccc(c23)C(=O)N1c1nccs1 | < 4.30 | < 4.30 | 
17 | Cc1ccc(SC2C(=O)C3CC(OCc4ccccc4)C2(C)C3(C)C)cc1 (stereo unspecified) | < 3.70 | < 3.70 | 
18 | COc1c(OC(C)C)cc2cc(O)c(C(=O)NC3Cc4ccc(c(Cl)n4)O[C@@H]4C=C5C#C/C(=C\C#CC6OC56C4OC4CC(C)(O)C(O)C(C)O4)C(OC4CC(O)C(N(C)C)C(C)O4)COC3=O)cc2c1OC (stereo partly specified) |  |  | inactive
19 | COc1cc2c(cc1OC)C(C#N)C2 (stereo unspecified) | 2.98 | 2.88 | 
20 | N#Cc1c(-c2ccccc2)c(C#N)c(=S)n(C2OC(CO)C(O)C(O)C2O)c1N (stereo unspecified) | < 3.70 | 4.08 and 4.19 | 
21 | CN1CCc2ccccc2C(C(=O)c2ccc(Cl)cc2)C1=O (stereo unspecified) | < 4.08 | < 4.08 | 

Row | SMILES | pEC50 | pIC50 | outcome
22 | COC(=O)/C=C/c1ccc2c(c1)CCC2 | < 3.70 | 5.16 | 
23 | CCOC(=O)C(C1=C(O)c2ccccc2C(=O)C1=O)C1=C(O)c2ccccc2C(=O)C1=O | < 3.70 | 4.17 | 
24 | Nc1c(N=Nc2ccc([N+](=O)[O-])cc2)c(S(=O)(=O)O)cc2cc(S(=O)(=O)O)c(N=Nc3ccccc3)c(O)c12 | < 3.82 | < 3.82 | 
25 | C=CCC1C2CCC(O[Si](C(C)C)(C(C)C)C(C)C)(C(C(=O)OC)C2)C1O (stereo unspecified) | < 3.70 | 4.04 | 
26 | Cc1cn(C2OC(C)(CO)C(O)C2O)c(=O)[nH]c1=O (stereo unspecified) | < 3.04 | < 3.04 | 
27 | CCOC(=O)C(NC(=O)CC(C)C)(N1CCN(c2cc3c(cc2F)c(=O)c(C(=O)O)cn3C2CC2)CC1)C(F)(F)F (stereo unspecified) | < 3.70 | 5.72 | 
28 | C=CCC12CC(COc3ccccc3C(N)=O)OC1=Nc1ccccc1NC2=O (stereo unspecified) | < 3.70 | < 3.70 | 
29 | CCOS(=O)(=O)c1ccc(-c2c3nc(c(-c4ccc(S(=O)(=O)OCC)cc4)c4ccc([nH]4)c(-c4ccc(S(=O)(=O)OCC)cc4)c4nc(c(-c5ccc(S(=O)(=O)OCC)cc5)c5ccc2[nH]5)C=C4)C=C3)cc1 | < 4.00 | < 4.00 | 
30 | CN(C)CCNC(=O)Cn1cnc2cccc([N+](=O)[O-])c2c1=O | < 3.70 | < 3.70 | 
31 | N=C(N)c1ccc(N=NNc2ccc(C(=N)N)cc2)cc1 (tested in a mixture with another compound) | < 3.82 | 4.40 | 
32 | COc1ccc(/C=c2\c(=O)[nH]c3nc4ccccc4c(=O)n23)cc1 | < 3.70 | 4.46 | 
33 | Cc1oc(N)c(C#N)c1C |  |  | inactive
34 | Cn1c2c(c(=O)n(C)c1=O)C(C(=O)O)CC(=O)N2 (stereo unspecified) | < 3.70 | 3.77 | 
35 | CC1=CC(C)(C)[C@H]2O[C@@]3(O)C[C@]4(C)[C@H]5C[C@@](C(C)C)(O[C@H]4c4ccoc4)O[C@H]4[C@]5(C3)O[C@@]1(O)[C@]24O | < 4.00 | < 4.00 | 
36 | Cc1ccc(N=C2C(=Nc3ccc(C)cc3)N(c3ccc(C)cc3)C(=S)N2C(=O)c2ccccc2)cc1 | < 3.70 | < 3.70 | 
37 | CC(=O)CC[N+](C)(C)C |  |  | inactive
38 | Clc1ccc(SC(/C=C/NNC2=NC(c3ccccc3)C(c3ccccc3)=NN2)c2ccccc2)cc1 (stereo unspecified) | < 5.14 | 5.25 | 
39 | Nc1ccc(/C=C\c2ccc([N+](=O)[O-])cc2S(=O)(=O)O)c(S(=O)(=O)O)c1 | < 3.70 | < 3.70 | 
40 | O=Cc1cn(CCCCCCCCn2cc(C=O)c3ccccc32)c2ccccc12 | < 3.70 | < 3.70 | 
41 | COc1cc(C2c3cc4c(cc3[C@H](NS(C)(=O)=O)C3COC(=O)[C@H]23)OCO4)cc(OC)c1OC (stereo partly specified) |  |  | inactive
42 | COc1cc(-c2nc3sc(-c4ccc(O)c(OC)c4)nc3s2)ccc1O | 4.08 | < 3.70 | 

Row | SMILES | pEC50 | pIC50 | outcome
43 | CN1N=C(c2ccccc2)c2cc(Cl)ccc2N=C1N/N=C/c1ccc(N(C)C)cc1 | < 3.70 | < 3.70 | 
44 | C=C1CN(C2=NCCO2)C1 | < 3.70 | < 3.70 | 
45 | CC(C)=CCC[C@@H](C)C1=C(O)C(O)C(C)=C2N=C(c3ccccc3)C(=O)OC21 (stereo partly specified) | < 3.70 | 5.42 | 
46 | NC(=O)N/N=C(\CC1OC(=O)c2ccccc21)c1ccco1 (stereo unspecified) | < 3.08 | < 3.08 | 
47 | NC1=NN(c2ccccc2)C(=O)C1C(=O)C(=O)Nc1ccc(Cl)c(Cl)c1 (stereo unspecified) | < 3.48 | 3.63 | 
48 | O=C1C(O)=C(c2ccccc2C(=O)O)C(=O)C(O)=C1c1ccccc1C(=O)O | < 3.96 | < 3.96 | 
49 | C=CCOC1OC(CO[Si](C)(C)C(C)(C)C)C(OCc2ccccc2)C(OCc2ccccc2)C1OCc1ccccc1 (stereo unspecified) |  |  | inactive
50 | CC(=O)OCC1OC(Nc2ccc3nc(C)n(-c4ccccc4)c(=O)c3c2)C(OC(C)=O)C(OC(C)=O)C1OC(C)=O (stereo unspecified) | < 4.00 | 4.21 | 
51 | CCCCCCCCCCCCC/C=C/[C@@H](OC(=O)c1ccccc1)C(CO)N=[N+]=[N-] (stereo partly specified) |  |  | inactive
52 | c1ccc2c3c([nH]c2c1)[C@@H]1CCN2CCC[C@@H]2N1CC3 | < 3.70 | 4.01 | 
53 | O=C(O)c1ccccc1-c1c2cc(I)c(=O)c(I)c-2oc2c(I)c(O)c(I)cc12 | < 4.23 | 4.97 | 
54 | O=[N+]([O-])c1ccc2c(c1)nc1n2C(c2c(F)cccc2F)SC1 (stereo unspecified) | 3.73 | 3.71 | 
55 | Nc1nc(NCc2ccccc2)cc(NCc2ccccc2)n1 | < 4.70 | 5.56 | 
56 | CCCCCC(=O)N1SC(NC(=O)OC)=Nc2ccccc21 | < 3.81 | 5.08 | 
57 | COc1ccc(C(=O)/C=C/c2ccc(OCCCCCCCCCCOc3ccc(/C=C/C(=O)c4ccc(OC)c(OC)c4)cc3)cc2)c(OC)c1 |  |  | inactive
58 | COC(CNC(=O)C(C)NC(=O)/C=C/c1ccccc1)OC (stereo unspecified) |  |  | inactive
59 | N=C(N)SCc1cccc2c(=O)cc(-c3ccccc3)oc12 | < 3.19 | 5.25 | 
60 | CCN(CC)c1oc(N(CC)CC)c(C(=O)Nc2ccccn2)c(=O)c1C(C)=O | < 3.20 | 3.60 | 
61 | O=C1C(=O)N(c2cccc(C(F)(F)F)c2)C(=S)N1c1ccccc1 | < 3.70 | 4.51 | 
62 | CC(C)(C)c1nc2c(o1)C(=Nc1ccc(F)cc1)c1ccccc1C2=O |  |  | inactive
63 | COC(=O)N1C=CC2ON=C(OC)C2C1c1ccccc1 (stereo unspecified) | < 4.33 | < 4.33 | 

Row | SMILES | pEC50 | pIC50 | outcome
64 | CCC(CCCC[C@H]1CC[C@@H]2CC(=O)C[C@H]12)OC (stereo partly specified) | < 3.70 | < 3.70 | 
65 | CCCC(O)c1ccc2[nH]c3c(C)cc([N+](=O)[O-])c(C)c3c2c1 (stereo unspecified) | < 5.33 | < 5.33 | 
66 | COc1cc(C[C@H]2C(=O)OC[C@@H]2Cc2ccc(OC)c(OC)c2)cc(OC)c1 | < 3.70 | 4.04 | 
67 | COC(=O)C(C(=O)C(=O)NC1Nc2ccc(C)cc2S1)c1nc2ccc(Cl)cc2[nH]c1=O (stereo unspecified) | < 4.54 | < 4.54 | 
68 | O=S(O)c1cc(Cl)cc(Cl)c1OCc1ccccc1 |  |  | inactive
69 | Cc1c(Cl)c(=O)oc2cc(OCC(=O)c3ccccc3)ccc12 | < 4.00 | < 4.00 | 
70 | C/C=C/[C@@H](C(=O)OC)N1C(=O)c2ccccc2[C@H]1O | < 3.70 | < 3.70 | 
71 | COc1cc2c(cc1OC)C(Cl)C(c1ccc(Cl)c(Cl)c1)=C2Cl (stereo unspecified) |  |  | inactive
72 | C[N+](C)(C)CCC(=O)N1C/C(=C\c2ccccc2)C(=O)/C(=C/c2ccccc2)C1 | < 3.70 | 5.55 | 
73 | COC(=O)C(NC(=O)c1ccccc1)c1ccco1 (stereo unspecified) | < 3.02 | 3.32 | 
74 | COc1ccc(C(c2ccc(C(C)C)cc(=O)c2O)c2c(O)cc3oc(-c4ccccc4)cc(=O)c3c2O)cc1 (stereo unspecified) |  |  | inactive
75 | O=C(Nc1ccc(Cl)cc1)OCC12COCN1COC2 | 3.69 | 3.59 | 
76 | Nc1ncnc2c1sc(=S)n2-c1ccccc1 | < 4.28 | < 4.28 | 
77 | Oc1cccc2c1NC1=C(CCC/C1=C\c1ccccc1)C2 | < 5.03 | < 5.03 | 
78 | Cc1cc(C)nc(NS(=O)(=O)c2ccc(NC(=O)c3cccc4c(Nc5ccc(S(N)(=O)=O)cc5)c5ccccc5nc34)cc2)n1 | < 4.26 | 4.66 | 
79 | COCO[C@@H]1C[C@H]2C(=O)Nc3ccccc3C(=O)N2C1 | < 3.70 | 4.42 | 
80 | O=c1n(-c2ccccc2)c(=O)n2n1C1CC3c4ccccc4C1C32 (stereo unspecified) | < 4.64 | < 4.64 | 
81 | CC(=O)O[C@]1(C(C)=O)CC[C@H]2[C@@H]3C[C@H](C)C4=CC(=O)C=C[C@]4(C)[C@@]3(F)[C@@H](O)C[C@@]21C |  |  | inactive
82 | O=c1/c(=C/c2ccccc2)sc2nc(-c3ccccc3)nn12 | < 3.70 | < 3.70 | 

From PubChem BioAssay AID179 (DTP/NCI, 2004)
